Reference: ChEMBL document CHEMBL4823314, “Design, synthesis and biological evaluation of novel acridine and quinoline derivatives as tubulin polymerization inhibitors with anticancer activities” (Bioorg Med Chem, 2021)

Experiments:
[1] = test system: B16-F10; assay: Antiproliferative activity against mouse B16-F10 cells assessed as reduction in cell viability measured after 48 hrs by MTT assay; format: functional, cell-based; conditions: B16-F10, 48 h
[2] = test system: HepG2; assay: Antiproliferative activity against human HepG2 cells assessed as reduction in cell viability measured after 48 hrs by MTT assay; format: functional, cell-based; conditions: HepG2, 48 h
[3] = test system: MCF7; assay: cells; conditions: Homo sapiens, MCF7, 48 h
Description: Antiproliferative activity against human MCF7 cells assessed as reduction in cell viability measured after 48 hrs by MTT assay

[4] = test system: HeLa; assay: cells; conditions: Homo sapiens, 48 h
Description: Antiproliferative activity against human HeLa cells assessed as reduction in cell viability measured after 48 hrs by MTT assay

[5] = Inhibition of pig brain tubulin polymerization by spectrophotometric method; format: tissue-based, Sus scrofa

| SMILES | IC50 [1] | IC50 [2] | IC50 [3] | IC50 [4] | IC50 [5] |
| --- | --- | --- | --- | --- | --- |
| CCCCN(c1ccc(F)c(Cl)c1)c1cccc2ncccc12 | 29.5 µM | 26.7 µM | 33.8 µM | 32.1 µM |  |
| CN(c1ccccc1)c1cccc2ncccc12 | 18.1 µM | 16 µM | 20.4 µM | 24 µM |  |
| COc1ccc(Nc2ccnc(C)n2)cc1 | 10.6 µM | 6.78 µM | 12.5 µM | 13.6 µM |  |
| c1ccc(Nc2cccc3ncccc23)cc1 | 28.6 µM | 26.8 µM | 26.4 µM | 30.7 µM |  |
| CCCCN(c1cc(OC)c(OC)c(OC)c1)c1ccnc2cc(Cl)ccc12 | 14.7 µM | 15.4 µM | 16.4 µM | 17.3 µM |  |
| CN(c1ccc(F)c(Cl)c1)c1cccc2ncccc12 | 25.5 µM | 20.1 µM | 23.6 µM | 30.9 µM |  |
| CCCCN(c1ccc(C#N)cc1)c1cccc2ncccc12 | 33.1 µM | 30.1 µM | 29.7 µM | 42.9 µM |  |
| COc1ccc(/C=C\c2cc(OC)c(OC)c(OC)c2)cc1O [COMBRETASTATIN A4] | 0.014 µM |  | 0.019 µM | 0.023 µM | 1840 nM |
| CCCCN(c1cc(OC)c(OC)c(OC)c1)c1ccnc(C)n1 | 19.3 µM | 16.8 µM | 20.2 µM | 17 µM |  |
| COc1cc(Nc2ccnc(C)c2)cc(OC)c1OC | 18.9 µM | 11.4 µM | 13.3 µM | 16.1 µM |  |
| COc1ccc(Nc2ccnc(C)c2)cc1 | 16.6 µM | 14.8 µM | 21.1 µM | 21 µM |  |
| COc1cc(N(C)c2ccnc(C)c2)cc(OC)c1OC | 22.5 µM | 18.6 µM | 15.3 µM | 14.1 µM |  |
| CN(c1ccc(C#N)cc1)c1cccc2ncccc12 | 25.2 µM | 28.7 µM | 30.9 µM | 36.5 µM |  |
| COc1cc(N(C)c2ccnc(C)n2)cc(OC)c1OC | 15.4 µM | 12.7 µM | 14.5 µM | 16.2 µM |  |
| COc1cc(N(C)c2ccnc3cc(Cl)ccc23)cc(OC)c1OC | 13.3 µM | 11.4 µM | 14.3 µM | 16.1 µM |  |
| COc1ccc(N(C)c2ccnc(C)c2)cc1 | 15.4 µM | 15.5 µM | 13.3 µM | 18.7 µM |  |
| CCCCN(c1ccccc1)c1cccc2ncccc12 | 27.1 µM | 22.1 µM | 20 µM | 29.9 µM |  |
| Fc1ccc(Nc2cccc3ncccc23)cc1Cl | 38.1 µM | 32.1 µM | 36.4 µM | 44.9 µM |  |
| N#Cc1ccc(Nc2cccc3ncccc23)cc1 | 40.4 µM | 37.5 µM | 35.6 µM | 43.2 µM |  |
| CCCCN(c1ccc(OC)cc1)c1ccnc(C)c1 | 20.2 µM | 18.7 µM | 22.5 µM | 19.7 µM |  |
| CCCCN(c1ccnc(C)c1)c1cc(OC)c(OC)c(OC)c1 | 18.4 µM | 15.6 µM | 17.3 µM | 16.8 µM |  |

Continued, in another order:

| IC50 [1] | IC50 [2] | IC50 [3] | IC50 [4] | SMILES | IC50 [5] |
| --- | --- | --- | --- | --- | --- |
| 2.14 µM | 1.47 µM | 1.23 µM | 3.67 µM | COc1ccc(Nc2c3ccccc3nc3ccccc23)cc1 |  |
| 6.58 µM | 5.24 µM | 6.36 µM | 8.27 µM | COc1cc(N(C)c2cccc3ncccc23)cc(OC)c1OC |  |
| 4.57 µM | 3.79 µM | 4.64 µM | 4.16 µM | COc1ccc(Nc2cccc3ncccc23)cc1 |  |
| 6.54 µM | 4.46 µM | 5.67 µM | 6.8 µM | COc1cc(Nc2c3ccccc3nc3ccccc23)cc(OC)c1OC |  |
| 10 µM | 8.18 µM | 11.5 µM | 10.6 µM | COc1cc(Nc2ccnc(C)n2)cc(OC)c1OC |  |
| 8.32 µM | 6.98 µM | 9.69 µM | 8.79 µM | COc1ccc(Nc2ccnc3cc(Cl)ccc23)cc1 |  |
| 6.45 µM | 3.44 µM | 7.11 µM | 8.65 µM | CCCCN(c1ccc(OC)cc1)c1c2ccccc2nc2ccccc12 |  |
| 6.84 µM | 5.69 µM | 7.12 µM | 6.47 µM | CCCCN(c1ccc(OC)cc1)c1ccnc2cc(Cl)ccc12 |  |
| 1.39 µM | 1.81 µM | 2.03 µM | 2.7 µM | COc1cc(N(C)c2c3ccccc3nc3ccccc23)cc(OC)c1OC |  |
| 1.38 µM | 0.939 µM | 4.42 µM | 2.67 µM | COc1ccc(N(C)c2ccnc3cc(Cl)ccc23)cc1 |  |
| 7.65 µM | 7 µM | 8.33 µM | 9.29 µM | CCCCN(c1cc(OC)c(OC)c(OC)c1)c1cccc2ncccc12 |  |
| 2.43 µM | 1.37 µM | 3.78 µM | 3.06 µM | CCCCN(c1ccc(OC)cc1)c1cccc2ncccc12 |  |
| 6.97 µM | 5.23 µM | 6.6 µM | 8.07 µM | COc1ccc2nc3cc(Cl)ccc3c(Nc3cc(OC)c(OC)c(OC)c3)c2c1 |  |
| 5.78 µM | 4.18 µM | 5.17 µM | 6.49 µM | COc1ccc(N(C)c2c3ccccc3nc3ccccc23)cc1 |  |
| 4.98 µM | 3.19 µM | 5.17 µM | 7.2 µM | COc1ccc(Nc2c3ccc(Cl)cc3nc3ccc(OC)cc23)cc1 |  |
| 9.06 µM | 6.71 µM | 9.38 µM | 8.61 µM | CCCCN(c1ccc(OC)cc1)c1ccnc(C)n1 |  |
| 3.79 µM | 2.83 µM | 3.13 µM | 4.01 µM | COc1ccc2nc3cc(Cl)ccc3c(N(C)c3cc(OC)c(OC)c(OC)c3)c2c1 |  |
| 8.05 µM | 7.24 µM | 7.77 µM | 8.95 µM | COc1ccc(N(C)c2c3ccc(Cl)cc3nc3ccc(OC)cc23)cc1 |  |
| 4.06 µM | 1.4 µM | 5.32 µM | 6.12 µM | COc1ccc(N(C)c2ccnc(C)n2)cc1 |  |
| 7.22 µM | 6.82 µM | 9.27 µM | 8.65 µM | COc1cc(Nc2ccnc3cc(Cl)ccc23)cc(OC)c1OC |  |
| 1.28 µM | 0.783 µM | 1.14 µM | 2.8 µM | COc1cc(Nc2cccc3ncccc23)cc(OC)c1OC |  |
| 9.04 µM | 8.16 µM | 9.06 µM | 9.82 µM | CCCCN(c1ccc(OC)cc1)c1c2ccc(Cl)cc2nc2ccc(OC)cc12 |  |
| 4.66 µM | 3.5 µM | 4.86 µM | 6.08 µM | CCCCN(c1cc(OC)c(OC)c(OC)c1)c1c2ccc(Cl)cc2nc2ccc(OC)cc12 |  |
| 4.68 µM | 3.55 µM | 4.44 µM | 5.3 µM | CCCCN(c1cc(OC)c(OC)c(OC)c1)c1c2ccccc2nc2ccccc12 |  |
